# Measured values as given in patent publication US12570683B2, “Polymorphic form of reduced beta-nicotinamide mononucleotide disodium salt, and preparation method therefor and use thereof” (EFFEPHARM (SHANGHAI) CO., LTD., priority 2022, dated 2026).
# Legend:
# Assay type in all cases: physicochemical
# [1] = Stability, placed openly in stability chamber at 25° C. and 65% RH; conditions: open
# [2] = Stability, placed openly in stability chamber at 4° C. and 75% RH; conditions: open
# [3] = Exposure in air at 2-8° C., relative humidity 70-80% (crystal form transformation by absorbing water); conditions: RH 70-80%
# From the text: Moisture (KF) determination method: MC-2000 automatic micro-moisture tester from Min Measure Instrument and Equipment (Xiamen) Co., Ltd. and Karl Fischer reagent from Nanjing Chemical Reagent Co., Ltd.
# [4] = 0 day, listed as amorphous solid, disodium salt
# [5] = 1 day, listed as amorphous solid, disodium salt
smiles,measurement,setting,value
"NC(=O)C1=CN([C@@H]2O[C@H](COP(=O)([O-])[O-])[C@@H](O)[C@H]2O)C=CC1.[Na+].[Na+] [Amorphous Solids, reduced β-nicotinamide mononucleotide disodium salt]",Appearance of solid,[1]; 0 day,(powders)
same,"NMNH disodium salt purity (HPLC, % area)","[1]; 0 day, disodium salt",99.30 % area
same,"NMNH disodium salt purity (HPLC, % area)",[1]; [4],99.30 % area
same,Appearance of solid,"[1]; 1 day, disodium salt",(oil)
same,"NMNH disodium salt purity (HPLC, % area)","[1]; 1 day, disodium salt",99.02 % area
same,Appearance of solid,[1]; [5],the powder absorbed water and turned into an oil
same,"NMNH disodium salt purity (HPLC, % area)",[1]; [5],99.02 % area
same,"NMNH disodium salt purity (HPLC, % area)","[2]; 0 day, disodium salt",99.30 % area
same,"NMNH disodium salt purity (HPLC, % area)",[2]; [4],99.30 % area
same,"NMNH disodium salt purity (HPLC, % area)","[2]; 5 day, disodium salt",99.26 % area
same,"NMNH disodium salt purity (HPLC, % area)","[2]; 5 day, listed as amorphous solid, disodium salt",99.26 % area
same,Appearance of solid,[2]; 5 days,the powder solid absorbed water and became viscous to form a mass
same,"NMNH disodium salt purity (HPLC, % area)","[2]; 18 day, disodium salt",99.17 % area
same,"NMNH disodium salt purity (HPLC, % area)","[2]; 18 day, listed as amorphous solid, disodium salt",99.17 % area
same,Appearance of solid,"[2]; 18 days, disodium salt",the color became darker
"NC(=O)C1=CN([C@@H]2O[C@H](COP(=O)([O-])[O-])[C@@H](O)[C@H]2O)C=CC1.[Na+].[Na+] [Crystal form A, reduced β-nicotinamide mononucleotide disodium salt]","NMNH disodium salt purity (HPLC, % area)","[1]; 0 day, disodium salt",99.33 % area
same,"NMNH disodium salt purity (HPLC, % area)","[1]; 0 day, listed as crystal form A, disodium salt",99.33 % area
same,"NMNH disodium salt purity (HPLC, % area)","[1]; 1 day, disodium salt",99.27 % area
same,"NMNH disodium salt purity (HPLC, % area)",[1]; 5 day,99.01 % area
same,Appearance of solid,[1]; 5 days,still a crystal powder
same,"NMNH disodium salt purity (HPLC, % area)","[2]; 0 day, disodium salt",99.33 % area
same,"NMNH disodium salt purity (HPLC, % area)","[2]; 5 day, disodium salt",99.35 % area
same,"NMNH disodium salt purity (HPLC, % area)","[2]; 18 day, disodium salt",99.33 % area
same,"NMNH disodium salt purity (HPLC, % area)","[2]; 18 day, listed as crystal form A, disodium salt",99.33 % area
same,Appearance of solid,"[2]; 18 days, disodium salt",still a crystal powder
"NC(=O)C1=CN([C@@H]2O[C@H](COP(=O)([O-])[O-])[C@@H](O)[C@H]2O)C=CC1.[Na+].[Na+] [crystal form B, reduced β-nicotinamide mononucleotide disodium salt]",Moisture (KF) after exposure,[3]; after 30 days,29%
same,Resulting solid crystal form,[3]; after 30 days,crystal form A
"NC(=O)C1=CN([C@@H]2O[C@H](COP(=O)([O-])[O-])[C@@H](O)[C@H]2O)C=CC1.[Na+].[Na+] [crystal form C, reduced β-nicotinamide mononucleotide disodium salt]",Moisture (KF) after exposure,[3]; after 24 hours,24%
same,Resulting solid crystal form,[3]; after 24 hours,crystal form A
